# Results reported in patent publication US7964647B2 (Mutual Pharmaceutical Company, Inc., priority 2007, dated 2011).
# Read-outs that look alike come from different tables or passages of the source.
# What was measured:
# [1] = not given; remark: listed apart in the source
# clinical = conditions: human, in vivo, 0.6 mg; for AUC: AUC0-τ, 0.6 mg b.i.d. x 10 days, after last dose (Day 25), healthy adults, N = 13
# Description: Subjects received a light breakfast served 60 minutes following dose administration in the morning and the evening dose was administered 90 minutes after an evening meal on Days 15 through 24 only. […] Study periods were separated by a 14-day washout. Following the single dose and the last dose of the multiple dose regimen (beginning on the mornings of Day 1 and Day 25, respectively), blood samples were collected (6 mL each) from each subject within 1 hour prior to dosing and after dose administration at study hours 0.5, 1, 1.5, 2, 3, 4, 6, 8, 10, 12, and 24 (while confined) and 36, 48, 72, and 96 (on an outpatient basis).
# [2] = 0.6 mg b.i.d. x 10 days, after last dose (Day 25), healthy adults, N = 13
# [3] = single oral 0.6 mg dose, healthy adults, N = 13
# [4] = low-dose regimen 1.8 mg (2 x 0.6 mg, then 0.6 mg 1 hour later), fasting healthy adults, N = 13
# [5] = low-dose regimen 1.8 mg, healthy adults, N = 13
# [6] = low-dose regimen 1.8 mg, time after the initial dose, healthy adults, N = 13
smiles,measurement,setting,value
"COc1cc2c(c(OC)c1OC)-c1ccc(OC)c(=O)cc1[C@@H](NC(C)=O)CC2 [Colchicine, (−)-N-[(7S,12aS)-1,2,3,10-tetramethoxy-9-oxo-5,6,7,9-tetrahydrobenzo[a]heptalen-7-yl]-acetamide]","AUC0-inf, MAX",[2],67.94465 ng·h/mL
same,"AUC0-inf, MEAN",[2],54.19877 ng·h/mL
same,"AUC0-inf, MEDIAN",[2],54.11343 ng·h/mL
same,"AUC0-inf, MIN",[2],37.59976 ng·h/mL
same,"AUC0-t, MAX",[2],58.26535 ng·h/mL
same,"AUC0-t, MEAN",[2],43.57696 ng·h/mL
same,"AUC0-t, MEDIAN",[2],41.9251 ng·h/mL
same,"AUC0-t, MIN",[2],29.32878 ng·h/mL
same,"AUC0-τ, MAX",[2],36.08395 ng·h/mL
same,"AUC0-τ, MIN",[2],20.79198 ng·h/mL
same,"Cave, MAX",[2],1503.50 pg/mL
same,"Cave, MEAN",[2],1210.68 pg/mL
same,"Cave, MEDIAN",[2],1185.51 pg/mL
same,"Cave, MIN",[2],866.33 pg/mL
same,"Cmax, MAX",[2],4.957 ng/mL
same,"Cmax, MEAN",[2],3.55315 ng/mL
same,"Cmax, MEDIAN",[2],3.734 ng/mL
same,"Cmax, MIN",[2],1977.00 pg/mL
same,"Cmin, MAX",[2],1149.67 pg/mL
same,"Cmin, MEDIAN",[2],903.50 pg/mL
same,"Cmin, MIN",[2],636.23 pg/mL
same,"Kel, MAX",[2],0.03 h⁻¹
same,"Kel, MEAN",[2],0.03 h⁻¹
same,"Kel, MEDIAN",[2],0.03 h⁻¹
same,"Kel, MIN",[2],0.02 h⁻¹
same,"T1/2, MAX",[2],33.65 h
same,"T1/2, MEDIAN",[2],26.51 h
same,"T1/2, MIN",[2],20.82 h
same,"Tmax, MAX",[2],3.00 h
same,"Tmax, MEAN",[2],1.31 h
same,"Tmax, MIN",[2],30 min
same,"AUC0-inf, MAX",[3],23.83848 ng·h/mL
same,"AUC0-inf, MIN",[3],7.25266 ng·h/mL
same,"AUC0-t, MAX",[3],18.12865 ng·h/mL
same,"AUC0-t, MIN",[3],4.81288 ng·h/mL
same,"Cmax, MAX",[3],3.977 ng/mL
same,"Cmax, MIN",[3],1584.00 pg/mL
same,"Kel, MAX",[3],0.2443 h⁻¹
same,"Kel, MEAN",[3],0.1829 h⁻¹
same,"Kel, MEDIAN",[3],0.1992 h⁻¹
same,"Kel, MIN",[3],0.0359 h⁻¹
same,"T1/2, MAX",[3],19.29 h
same,"T1/2, MIN",[3],2.84 h
same,"Tmax, MAX",[3],3.00 h
same,Cmin prior to the morning dose higher than Cmin prior to the evening dose,"steady state, Day 23 and Day 24",approximately 12%
same,"Cmax, MAX",[1]; [4],11.37 ng/mL
same,"Cmax, MIN",[1]; [4],3.16 ng/mL
same,Maximum colchicine concentration,"[1]; low-dose regimen 1.8 mg, healthy adults",6.2 ng/mL
same,"CL/F, MAX",[1]; [5],52676.24 mL/h
same,"CL/F, MEAN",[1]; [5],36950.93 mL/h
same,"CL/F, MEDIAN",[1]; [5],35444.40 mL/h
same,"CL/F, MIN",[1]; [5],24295.73 mL/h
same,"Kel, MAX",[1]; [5],0.0502 h⁻¹
same,"Kel, MEAN",[1]; [5],0.0326 h⁻¹
same,"Kel, MEDIAN",[1]; [5],0.0322 h⁻¹
same,"Kel, MIN",[1]; [5],0.0141 h⁻¹
same,"Total AUC0-t, MAX",[1]; [5],58.93199 ng·h/mL
same,"Total AUC0-t, MEAN",[1]; [5],43.78755 ng·h/mL
same,"Total AUC0-t, MEDIAN",[1]; [5],43.94215 ng·h/mL
same,"Total AUC0-t, MIN",[1]; [5],28.82145 ng·h/mL
same,"Total AUC∞, MAX",[1]; [5],74.08708 ng·h/mL
same,"Total AUC∞, MEAN",[1]; [5],52.07006 ng·h/mL
same,"Total AUC∞, MEDIAN",[1]; [5],50.78377 ng·h/mL
same,"Total AUC∞, MIN",[1]; [5],34.171 ng·h/mL
same,"Varea/F, MAX",[1]; [5],1724.36 L
same,"Varea/F, MEAN",[1]; [5],1188.72 L
same,"Varea/F, MEDIAN",[1]; [5],1149.35 L
same,"Varea/F, MIN",[1]; [5],774.19 L
same,"t1/2, MAX",[1]; [5],49.20 h
same,"t1/2, MEAN",[1]; [5],23.63 h
same,"t1/2, MIN",[1]; [5],13.80 h
same,"Tmax, MAX",[1]; [6],2.50 h
same,"Tmax, MIN",[1]; [6],1.00 h
same,Subjects with a secondary peak within 6 hours after the first dose,"[1]; low-dose regimen 1.8 mg, 10 of 13 subjects",77%
same,Tmax,clinical,1 h
same,AUC,clinical; MEAN,29.1 ng·h/mL
same,AUC,clinical; MEDIAN,28.5 ng·h/mL
same,Cmax,clinical; po,2.71 ng/mL
same,half-life,clinical; po,~300 min
